Source: EP4744665A1, “COMBINATION OF POLQ INHIBITOR COMPOUND AND ANTI-CANCER THERAPEUTIC AGENT OR RADIOTHERAPY” (Simcere Zaiming Pharmaceutical Co., Ltd., priority 2023, dated 2025)

Assays:
Test in all cases: Combined use with irradiation (IR), Bliss Independence model (Cell Titer Glo, 7 days)
Type in all cases: cell-based
Conditions in all cases: combination with IR
[1] = system: DLD-1
Method: (§1) DLD-1 colorectal adenocarcinoma cells, NUGC4 gastric cancer cells, NCI-H460 non-small cell lung cancer cells, SHP-77 small cell lung cancer cells, and LNCAP prostate cancer cells were cultured in a 1640 medium containing 10% fetal bovine serum. MDA-MB-436 breast cancer cells were cultured in a DMEM medium containing 10% fetal bovine serum. OVCAR3 ovarian cancer cells were cultured in a 1640 medium containing 20% fetal bovine serum and 10 µg/mL bovine insulin. The cells were all cultured at 37 °C with 5% CO2. Cells at the logarithmic growth phase were available for the experiment.
(§2) 100 µL of the cell medium was added to rows A and H and columns 1 and 12 of a 96-well cell culture plate. Cultured cells were resuspended (adherent cells were digested with trypsin) and counted to give information on cell density and viability. The dilution ratio of the resuspended cells required for inoculating a fixed number of cells into 90 µL of the medium in each culture well was calculated based on the cell density information. After the resuspended cells were diluted with the corresponding medium, 90 µL of the diluted cells were transferred to columns 2-11 of rows B-G of a 96-well cell culture plate using an Eppendorf multi-channel pipette (60 wells in total for each plate). The cell culture plate was incubated overnight in an incubator at 37 °C with 5% CO2.
(§3) The test compound was dissolved in DMSO to give a 10 mM stock solution for later use. In the experiment, the compound was further diluted to the corresponding concentration according to the concentration designed in the experiment, and based on this concentration, 4-fold serial gradient dilution was performed to give a total of 10 dose concentrations (the lowest dose was 0, and other specific concentration values were shown in FIG. 2). 10 µL of the diluted compound was added to the corresponding cell plate well, such that the final concentration of DMSO was 0.25%. The compound was incubated with the cells in an incubator at 37 °C with 5% CO2 for 4 h, and then the cell plate was transferred to Cellrad for irradiation (abbreviated as IR) at different doses (see FIG. 2 for specific dose values). After the irradiation was completed, the cell plate was incubated in an incubator at 37 °C with 5% CO2 for another 7 days, Cell Titer Glo was added at 50 µL/well, and the luminescence value of each well was read using an Envision microplate reader.
(§4) The luminescence value of the well containing only the cell medium was taken as the background (RLUbackground, corresponding cell survival rate to be 0%), the cell well containing only 0.25% DMSO without the compound and the irradiation treatment was taken as the maximum signal (RLUDMSO, corresponding cell survival rate to be 100%), and the luminescence values of the remaining wells containing cells and compounds at different concentrations were taken as RLUsample. The survival rate of each cell well was calculated as follows: Survival rate (%) = (RLUsample−RLUbackground)/(RLUDMSO−RLUbackground) × 100% [formula]
(§5) The interaction between the drug and irradiation (synergistic, independent, or antagonistic) was statistically analyzed by the Bliss Independence model using Combenefit software (Bliss, C.I., Bacteriol. Rev., 1956, 20, 243-258). The model assumes that the drug and irradiation act independently. The theoretical expected action curve of the combination was calculated from the following equation: Bliss effect = effect A + effect B−effect A × effect B [formula] wherein effect A is the effect of drug A at a particular concentration. Effect B is the effect of irradiation at a particular dose.
(§6) The Bliss effect is the expected effect when the combination of the drug and irradiation is administered precisely. A negative Bliss score (δ = observed effect - Bliss effect) indicates an antagonistic effect between the drug and irradiation if the observed effect (i.e., the experimentally measured combined effect) is less than the Bliss effect. […]

[2] = system: LNCAP
Method: as §1, §2, §3, §4, §5, §6

[3] = system: MDA-MB-436
Method: as §1, §2, §3, §4, §5, §6

[4] = system: NCI-H460
Method: as §1, §2, §3, §4, §5, §6

[5] = system: NUGC4
Method: as §1, §2, §3, §4, §5, §6

[6] = system: OVCAR3
Method: as §1, §2, §3, §4, §5, §6

[7] = system: SHP-77
Method: as §1, §2, §3, §4, §5, §6

Measured: Combined effect

COc1ccc(Cl)cc1-c1cc(C)ncc1C(=O)Nc1nc2ncc(-c3ccc(C#N)cc3)nc2s1.[Na] [Sodium salt of compound I, Sodium Salt of 4-(5-Chloro-2-methoxyphenyl)-N-[6-(4-cyanophenyl)thiazolo[4,5-b]pyrazin-2-yl]-6-methylnicotinamide]
Synergistic: all assays above
